Results published in patent US12227498B2, “Heterocyclic amine derivative and pharmaceutical composition comprising same” (Daewoong Pharmaceutical Co., Ltd., priority 2018, dated 2025).

Experiments:
ITK = target: T1, ITK (Homo sapiens, UniProt Q08881); assay: Inhibitory activity against ITK, ADP-Glo + ITK Kinase enzyme system kit (Promega); format: biochemical; settings: ITK enzyme 0.4 ng/μl; 15 min preincubation at room temperature; 1 hour at 30° C.; luminescence; duplicate
T1 construct: purchased Promega Corporation
T1 sequence (Q08881 1-620): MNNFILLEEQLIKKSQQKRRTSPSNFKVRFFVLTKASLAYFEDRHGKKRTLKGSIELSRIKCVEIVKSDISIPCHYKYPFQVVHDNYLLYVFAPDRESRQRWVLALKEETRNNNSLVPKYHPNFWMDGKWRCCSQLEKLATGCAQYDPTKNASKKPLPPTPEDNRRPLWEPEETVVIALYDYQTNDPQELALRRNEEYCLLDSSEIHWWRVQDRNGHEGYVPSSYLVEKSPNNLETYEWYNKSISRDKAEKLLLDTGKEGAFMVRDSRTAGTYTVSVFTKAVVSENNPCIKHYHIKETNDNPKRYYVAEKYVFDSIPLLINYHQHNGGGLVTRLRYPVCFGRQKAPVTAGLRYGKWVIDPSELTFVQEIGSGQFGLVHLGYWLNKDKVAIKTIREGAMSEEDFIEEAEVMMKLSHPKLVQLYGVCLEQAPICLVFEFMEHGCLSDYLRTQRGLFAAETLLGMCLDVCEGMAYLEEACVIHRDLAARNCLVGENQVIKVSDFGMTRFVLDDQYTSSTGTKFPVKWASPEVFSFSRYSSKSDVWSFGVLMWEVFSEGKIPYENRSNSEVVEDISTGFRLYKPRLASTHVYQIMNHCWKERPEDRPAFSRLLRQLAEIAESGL
Protocol: (§1) Inhibitory activities against BTK and ITK were measured for the compounds prepared in the above Examples as follows.
The inhibitory activity against ITK was evaluated using ‘ADP-Glo™+ITK Kinase enzyme system’ kit (Promega Corporation). […] To the plate on which reactions were completed, 5 μl of substrate and 5 μl of ATP prepared so as to have a final concentration of […] were added and then allowed to react at 30° C. for 1 hour. All wells of the plate were treated with 25 μl of ADP-Glo™ reagent and then allowed to react at 30° C. for 40 minutes. After that, all wells were treated with 50 μl of kinase detection buffer, and then allowed to react at 30° C. for 30 minutes under light shielding conditions. For the plate on which all reactions were completed, luminescence was measured and the results were calculated. Evaluation was carried out in duplicate, and negative control and positive control were calculated depending on whether or not the enzyme was added without treatment of the compound. The IC50 was calculated based on the calculated values.

BTK = target: T2, BTK (Homo sapiens, UniProt Q06187); assay: Inhibitory activity against BTK, ADP-Glo + BTK Kinase enzyme system kit (Promega); format: biochemical; settings: BTK enzyme 1 ng/μl; ATP 10 µM; 15 min preincubation at room temperature; 1 hour at 30° C.; luminescence; duplicate
T2 construct: purchased Promega Corporation
T2 sequence (Q06187 whole entry): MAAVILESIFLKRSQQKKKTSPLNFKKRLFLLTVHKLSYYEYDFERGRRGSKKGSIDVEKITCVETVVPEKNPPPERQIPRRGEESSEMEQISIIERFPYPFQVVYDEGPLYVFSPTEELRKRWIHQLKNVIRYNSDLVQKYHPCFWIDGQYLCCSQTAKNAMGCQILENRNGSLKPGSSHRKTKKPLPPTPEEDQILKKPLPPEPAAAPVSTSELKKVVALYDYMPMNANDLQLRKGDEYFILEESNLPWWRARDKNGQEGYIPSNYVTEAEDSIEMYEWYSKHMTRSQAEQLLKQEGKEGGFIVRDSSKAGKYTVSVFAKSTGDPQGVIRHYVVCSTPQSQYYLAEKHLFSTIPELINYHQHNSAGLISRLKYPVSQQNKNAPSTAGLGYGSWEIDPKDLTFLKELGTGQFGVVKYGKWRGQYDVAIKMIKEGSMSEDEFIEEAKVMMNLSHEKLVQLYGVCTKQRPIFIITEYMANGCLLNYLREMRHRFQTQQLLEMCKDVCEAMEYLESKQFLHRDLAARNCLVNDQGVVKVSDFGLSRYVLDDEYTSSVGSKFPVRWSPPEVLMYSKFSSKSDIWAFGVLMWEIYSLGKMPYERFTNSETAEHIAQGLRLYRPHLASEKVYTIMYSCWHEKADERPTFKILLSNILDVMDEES
Protocol: as §1
The inhibitory activities against BTK were evaluated using ‘ADP-Glo™+BTK Kinase enzyme system’ kit (Promega Corporation). […] 5 μl of substrate and 5 μl of ATP prepared so as to have a final concentration of 10 µM were added to the plate on which reactions were completed, and then allowed to react at 30° C. for 1 hour. All wells of the plate were treated with 25 μl of ADP-Glo™ reagent and allowed to react at 30° C. for 40 minutes. After that, all wells were treated with 50 μl of kinase detection buffer, and then reacted at 30° C. for 30 minutes under light shielding conditions. For the plate on which all reactions were completed, luminescence was measured and the results were calculated. Evaluation was carried out in duplicate, and negative control and positive control were calculated depending on whether or not the enzyme was added without treatment of the compound. The IC50 was calculated based on the calculated values.

SMILES | IC50 (ITK) [nM] | IC50 (BTK) [nM]
C=CC(=O)N1CCC[C@H](Nc2cc(CN3CCN(C(C)=O)CC3)cc(Nc3ncc(C)s3)n2)C1 [Example 20] | 1.1 | 1.1
C=CC(=O)N1CC[C@@H](Nc2cc(CN3CCOCC3)cc(Nc3ncc(C)s3)n2)C1 [Example 6, (R)-1-(3-((6-((5-methylthiazol-2-yl)amino)-4-(morpholinomethyl)pyridin-2-yl)amino)pyrrolidin-1-yl) prop-2-en-1-one] | 36 | 27.7
C=CC(=O)N1CCC(Oc2cc(CN3CCOCC3)cc(Nc3ncc(C)s3)n2)C1 (centres unmarked) [Example 10, 1-(3-((6-((5-methylthiazol-2-yl)amino)-4-(morpholinomethyl)pyridin-2-yl)oxy)pyrrolidin-1-yl) prop-2-en-1-one] | > 40 | 2.4
C=CC(=O)N1CCCC(Nc2nc(CN3CCOCC3)cc(Nc3ncc(C)s3)n2)C1 (centres unmarked) [Example 17, 1-(3-((4-((5-methylthiazol-2-yl)amino)-6-(morpholinomethyl)pyrimidin-2-yl)amino)piperidin-1-yl) prop-2-en-1-one] | 1.9 | 1.5
